In series [1] the target is V-type proton ATPase subunit C (Manduca sexta) (UniProt Q9U5N1). The series can be described thus: Inhibition of tobacco hornworm V-ATPase c subunit.
The target is the same in series [2]. The series can be described thus: Binding affinity to tobacco hornworm V-ATPase c subunit in 4:4:1 CDCl3:MeOH-d4:D2O by NMR analysis.
Series [3] can be described thus: Solubility in 0.4 mM OG at 0.5 mM by NMR analysis. The class given is physicochemical. To be noted: 500 µM.
A short description of series [4]: Solubility in 50 mM OG at 0.5 mM by NMR analysis. The class given is physicochemical. The settings on record: 500 µM.
Series [5] in a line: Solubility in 2 mM LMPC at 0.5 mM by NMR analysis. The class given is physicochemical. The settings on record: 500 µM.
Series [6] is described as follows: Solubility in 3 mM DPC at 0.5 mM by NMR analysis. The class given is physicochemical. The settings on record: 500 µM.
The nature of series [7]: Solubility in 4 mM LDAO at 1 mM by NMR analysis. The class given is physicochemical. To be noted: 1000 µM.
A short description of series [8]: Solubility in 17 mM DHPC at 1 mM by NMR analysis. The class given is physicochemical. The settings on record: 1000 µM.
Series [9] is described as follows: Solubility of the compound in 42:9:49 EtOH-d6:CNCD3:D2O solution at <0.5 mM by NMR analysis. The format is physicochemical.
A short description of series [10]: Solubility of the compound in 40:40:1 CDCl3:MeOH-d4:D2O at 1 mM by NMR analysis. The format is physicochemical. To be noted: 1000 µM.
The nature of series [11]: Solubility of the compound in 10:90 MeOH-d4:D2O solution at 0.5 mM by NMR analysis. The format is physicochemical. The settings on record: 500 µM.
Series [12] is described as follows: Solubility of the compound in 5:95 EtOH-d6:D2O solution at 0.5 mM by NMR analysis. The class given is physicochemical. To be noted: 500 µM.
The nature of series [13]: Solubility of the compound in 5:95 CNCD3-d6:D2O solution at 1 mM by NMR analysis. The class given is physicochemical. The settings on record: 1000 µM.
Series [14] in a line: Solubility of the compound in 5:95 EtOH-d6:D2O solution at 1 mM by NMR analysis. To be noted: 1000 µM. The class given is physicochemical.
Series [15] can be described thus: Solubility of the compound in 5:95 MeOH-d4:D2O solution at 0.5 mM by NMR analysis. The class given is physicochemical. The settings on record: 500 µM.
The nature of series [16]: Solubility of the compound in 10:90 DMSO-d6:D2O solution at 0.5 mM by NMR analysis. The format is physicochemical. The settings on record: 500 µM.
Series [17] is described as follows: Solubility of the compound in 50:50 DMSO-d6:D2O solution at 1 mM by NMR analysis. The settings on record: 1000 µM. The class given is physicochemical.

The source made the active and inactive calls. The calls are words filed in the database; no cut-off is given here.

V-type proton ATPase subunit C (Manduca sexta), sequence (Q9U5N1 whole entry): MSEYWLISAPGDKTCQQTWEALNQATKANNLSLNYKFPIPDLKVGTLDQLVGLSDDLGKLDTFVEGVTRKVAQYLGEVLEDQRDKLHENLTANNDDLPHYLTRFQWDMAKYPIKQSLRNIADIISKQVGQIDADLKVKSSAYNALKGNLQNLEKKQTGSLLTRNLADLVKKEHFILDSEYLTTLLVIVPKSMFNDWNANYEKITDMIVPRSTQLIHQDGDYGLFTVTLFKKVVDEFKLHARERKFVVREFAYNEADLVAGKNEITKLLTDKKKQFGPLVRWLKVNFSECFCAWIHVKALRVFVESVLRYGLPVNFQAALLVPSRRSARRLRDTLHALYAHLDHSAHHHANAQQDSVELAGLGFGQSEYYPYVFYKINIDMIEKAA

`C=CCOP(=O)(O)CC(=O)O[C@@H]1/C=C/C(C)=C\C(C)=C/[C@H](C)[C@H](OC(=O)CP(=O)(O)OCC=C)/C=C(\C)C/C=C/C(=O)O[C@H](c2csc([C@H](CC(C)C)OC(=O)NC)n2)[C@@H](C)/C=C/C=C(\C)[C@@H](OC)[C@H]1C`: the inhibition entry in [1] is “inactive”.
Turning to `CNC(=O)O[C@@H](CC(C)C)c1nc([C@H]2OC(=O)/C(C)=C/C/C(C)=C/[C@@H](O[C@@H]3O[C@H](CO)[C@@H](O)[C@H](O)[C@H]3O)[C@@H](C)\C=C(C)/C=C(C)\C=C\[C@@H](O)[C@H](C)[C@H](OC)/C(C)=C/C=C/[C@@H]2C)cs1`, the result in series [2] was inactive.
Regarding `CNC(=O)O[C@@H](CC(C)C)c1nc([C@H]2OC(=O)/C(C)=C/C/C(C)=C/[C@@H](O)[C@@H](C)\C=C(C)/C=C(C)\C=C\[C@@H](O)[C@H](C)[C@H](OC)/C(C)=C/C=C/[C@@H]2C)cs1` [ARCHAZOLID A], the outcome in [2] was inactive. In addition, the solubility result in series [3], in [4], in series [5], in [6], in [7] and in series [8] was “Insoluble” each time. Besides, the solubility result is on record as “Insoluble” in series [9]; “soluble” in [10]; “Insoluble” in [11]; “Insoluble” in series [12]; “Insoluble” in series [13]; “Insoluble” in [14]. Further, the solubility result in series [15], in series [16] and in series [17] was “Insoluble” in each case.

(Values after ChEMBL document CHEMBL2203048, “Synthesis and biological evaluation of a water-soluble derivative of the potent V-ATPase inhibitor archazolid” (Bioorg Med Chem Lett, 2012).)
